Results on 10 compounds are retold here after patent US20240252488A1 (KOREA RESEARCH INSTITUTE OF CHEMICAL TECHNOLOGY, priority 2020, published 2024).

In general, Kd refers to the free concentration of one partner at which half of the binding sites on the other are occupied at equilibrium, for simple one-to-one binding. Low values mean higher affinity, high ones lower affinity.

Assay [1] has as its target T1, MLKL (Homo sapiens, UniProt Q8NB16).
T1 sequence (Q8NB16 1-471): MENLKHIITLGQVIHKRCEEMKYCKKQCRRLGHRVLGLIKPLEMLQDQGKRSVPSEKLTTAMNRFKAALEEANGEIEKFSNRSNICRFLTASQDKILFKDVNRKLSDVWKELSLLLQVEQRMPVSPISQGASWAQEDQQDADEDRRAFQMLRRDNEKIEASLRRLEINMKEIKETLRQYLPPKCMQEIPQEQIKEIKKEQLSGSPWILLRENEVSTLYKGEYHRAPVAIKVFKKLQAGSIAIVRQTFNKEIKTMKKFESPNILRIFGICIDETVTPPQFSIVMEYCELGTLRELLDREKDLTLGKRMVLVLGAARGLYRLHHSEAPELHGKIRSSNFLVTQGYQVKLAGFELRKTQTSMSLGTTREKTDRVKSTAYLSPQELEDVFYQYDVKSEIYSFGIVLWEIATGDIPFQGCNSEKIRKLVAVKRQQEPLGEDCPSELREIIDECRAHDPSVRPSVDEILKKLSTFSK
The assay is described as follows: Measurement of binding affinity with MLKL receptor (competitive binding assay, Kd). Details: made in house; host or cells: HEK 293 cell line (T7 phage in E. coli BL21-derived host is also described). In a few lines:
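Kd from an immobilized-ligand competition format: the DNA-tagged kinase from HEK 293 expression is eluted and quantified by qPCR. Compounds added from 111× DMSO stocks, final DMSO 0.9%.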

In assay [2] the target is T1, MLKL. The experiment in a line: MLKL degradation assay in HepG2 cell line (western blot). The following applies: cell line not given; for Degradation assay (Degradation %) 1 μM: compound 1 μM; for Degradation assay (Degradation %) 10 μM: compound 10 μM. The arrangement: endogenous in cells; host or cells: HepG2 or HaCaT. Type of assay: cell-based. The essentials:
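After treating HepG2 with test compounds (final 1 μM or 10 μM) for 20-24 h, we lysed cells, equalized protein by BCA and probed MLKL by overnight primary antibody at 4 °C followed by chemiluminescent detection.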
For orientation: A western blot detects proteins with antibodies after separation by electrophoresis.

A further assay relates to FADD−/− Jurkat cells. The experiment in a line: Necroptosis inhibition assay, TNF-α-induced necroptosis (CellTiter-Glo 2.0). It is filed as cell-based, human. The following applies: TNF-α 15 ng/mL; for Necroptosis inhibition assay (Rescue %) 1 μM: compound 1 μM; for Necroptosis inhibition assay (Rescue %) 10 μM: compound 10 μM. The essentials:
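Necroptosis was triggered by TNF-α at 15 ng/mL final following 30 minutes of compound exposure (0.1, 1 or 10 μM final). Incubation ran 20 to 24 hours at 37° C under 5% CO2; cell ATP was then quantified by luminescence.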
Background: In ATP-based viability assays light output follows the ATP content of the culture.

On MLKL [1], `Nc1ncc(-c2cn(C3CCN(CC4CCN(C(=O)CNc5ccc6c(c5)C(=O)N(C5CCC(=O)NC5=O)C6=O)CC4)CC3)nn2)nc1C(=O)OC(C(=O)Nc1ccc(F)cc1)c1ccccc1` (centres unmarked) [TDH-223, 2-((4-fluorophenyl)amino)-2-oxo-1-phenylethyl 3-amino-6-(1-(1-((1-((2-(2,6-dioxopiperidin-3-yl)-1,3-dioxoisoindolin-5-yl)glycyl)piperidin-4-yl)methyl)piperidin-4-yl)-1H-1,2,3-triazol-4-yl)pyrazine-2-carboxylate] came in with a dissociation constant (Kd) of 23 nM. Further, on MLKL [2], the “Degradation assay (Degradation %) 1 μM” value was found to be 29.38% and the “Degradation assay (Degradation %) 10 μM” value is given as 12.51%. In addition, in the assay on FADD−/− Jurkat cells, the “Necroptosis inhibition assay (Rescue %) 1 μM” value came to 34.97% and the “Necroptosis inhibition assay (Rescue %) 10 μM” value amounted to 23.64%.

On to `Nc1ncc(-c2cnn(C3CCN(CCCN4CCN(C(=O)COc5ccc6c(c5)C(=O)N(C5CCC(=O)NC5=O)C6=O)CC4)CC3)c2)nc1C(=O)N[C@@H](C(=O)Nc1ccc(F)cc1)c1ccccc1` (stereo partly drawn) [TDH-492, 3-amino-6-(1-(1-(3-(4-(2-((2-(2,6-dioxopiperidin-3-yl)-1,3-dioxoisoindolin-5-yl)oxy)acetyl)piperazin-1-yl)propyl)piperidin-4-yl)-1H-pyrazol-4-yl)-N-((R)-2-((4-fluorophenyl)amino)-2-oxo-1-phenylethyl)pyrazine-2-carboxamide], for which binding on MLKL [1] was put at a Kd of 39 nM. For the same compound, at MLKL [2], the “Degradation assay (Degradation %) 1 μM” value is reported as 13.74% and the “Degradation assay (Degradation %) 10 μM” value is 14.89%. Also, in the assay on FADD−/− Jurkat cells (FADD−/− Jurkat cells), the “Necroptosis inhibition assay (Rescue %) 1 μM” value is 10.33% and the “Necroptosis inhibition assay (Rescue %) 10 μM” value came out at 4.12%.

The compound `Nc1ncc(-c2cnn(C3CCN(CCCC4CCN(c5ccc6c(c5)C(=O)N(C5CCC(=O)NC5=O)C6=O)CC4)CC3)c2)nc1C(=O)O[C@@H](C(=O)Nc1ccc(F)cc1)c1ccccc1` (stereo partly drawn) [TDH-481, (R)-2-((4-fluorophenyl)amino)-2-oxo-1-phenylethyl 3-amino-6-(1-(1-(3-(1-(2-(2,6-dioxopiperidin-3-yl)-1,3-dioxoisoindolin-5-yl)piperidin-4-yl)propyl)piperidin-4-yl)-1H-pyrazol-4-yl)pyrazine-2-carboxylate] showed a dissociation constant (Kd) on MLKL [1] of 8.8 nM. Besides, on MLKL [2], the “Degradation assay (Degradation %) 1 μM” value came to 74.5% and the “Degradation assay (Degradation %) 10 μM” value amounted to 63.36%. Also, in the assay with FADD−/− Jurkat cells (FADD−/− Jurkat cells), the “Necroptosis inhibition assay (Rescue %) 1 μM” value was found to be 17.64% and the “Necroptosis inhibition assay (Rescue %) 10 μM” value is listed as 9.86%.

Take `Nc1ncc(-c2cnn(C3CCN(CCOCCOCCOCCNC(=O)CNc4ccc5nnn(C6CCC(=O)NC6=O)c(=O)c5c4)CC3)c2)nc1C(=O)O[C@@H](C(=O)Nc1ccc(F)cc1)c1ccccc1` (stereo partly drawn) [TDH-175, (R)-2-((4-fluorophenyl)amino)-2-oxo-1-phenylethyl 3-amino-6-(1-(1-(1-((3-(2,6-dioxopiperidin-3-yl)-4-oxo-3,4-dihydrobenzo[d][1,2,3]triazin-6-yl)amino)-2-oxo-6,9,12-trioxa-3-azatetradecan-14-yl)piperidin-4-yl)-1H-pyrazol-4-yl)pyrazine-2-carboxylate]: binding on MLKL [1] was put at a Kd of 7.3 nM. Further, at MLKL [2], the “Degradation assay (Degradation %) 1 μM” value is 48.93% and the “Degradation assay (Degradation %) 10 μM” value is recorded as 43.56%. For the same compound, in the assay with FADD−/− Jurkat cells, the “Necroptosis inhibition assay (Rescue %) 1 μM” value is reported as 18.82% and the “Necroptosis inhibition assay (Rescue %) 10 μM” value is recorded as 35.89%.

`Nc1ncc(-c2cnn(C3CCN(CCOC4CCN(c5ccc6c(c5)C(=O)N(C5CCC(=O)NC5=O)C6=O)CC4)CC3)c2)nc1C(=O)OC(C(=O)Nc1ccc(F)cc1)c1ccccc1` (centres unmarked) [TDH-254, 2-((4-fluorophenyl)amino)-2-oxo-1-phenylethyl 3-amino-6-(1-(1-(2-((1-(2-(2,6-dioxopiperidin-3-yl)-1,3-dioxoisoindolin-5-yl)piperidin-4-yl)oxy)ethyl)piperidin-4-yl)-1H-pyrazol-4-yl)pyrazine-2-carboxylate] returned a Kd at MLKL [1] of 8 nM. On MLKL [2], the “Degradation assay (Degradation %) 1 μM” value came to 19.16% and the “Degradation assay (Degradation %) 10 μM” value turned out to be 25.97%. In the assay with FADD−/− Jurkat cells, the “Necroptosis inhibition assay (Rescue %) 1 μM” value amounted to 24.05% and the “Necroptosis inhibition assay (Rescue %) 10 μM” value amounted to 15.37%.

At MLKL [1], `Nc1ncc(-c2cnn(C3CCN(CCC4CCN(C(=O)CNc5ccc6nnn(C7CCC(=O)NC7=O)c(=O)c6c5)CC4)CC3)c2)nc1C(=O)O[C@@H](C(=O)Nc1ccc(F)cc1)c1ccccc1` (stereo partly drawn) [TDH-334, (R)-2-((4-fluorophenyl)amino)-2-oxo-1-phenylethyl 3-amino-6-(1-(1-(2-(1-((3-(2,6-dioxopiperidin-3-yl)-4-oxo-3,4-dihydrobenzo[d][1,2,3]triazin-6-yl)glycyl)piperidin-4-yl)ethyl)piperidin-4-yl)-1H-pyrazol-4-yl)pyrazine-2-carboxylate] registered a dissociation constant Kd of 0.82 nM. For the same compound, on MLKL [2], the “Degradation assay (Degradation %) 1 μM” value is reported as 75.98% and the “Degradation assay (Degradation %) 10 μM” value is on record as 83.61%. In the assay on FADD−/− Jurkat cells (compound 1.1 µM), the “Necroptosis inhibition assay (Rescue %) 1.1 μM” value was 86.58 (1.1 µM) %. The “Necroptosis inhibition assay (Rescue %) 10 μM” value in the assay on FADD−/− Jurkat cells is 50.45%.

At MLKL [1], `Nc1ncc(-c2cnn(C3CCN(CC4CCN(CC5CCN(C(=O)C6CN(C7=CC(=O)N(C8CCC(=O)NC8=O)C7=O)C6)CC5)CC4)CC3)c2)nc1C(=O)O[C@@H](C(=O)Nc1ccc(F)cc1)c1ccccc1` (stereo partly drawn) [TDH-533, (R)-2-((4-fluorophenyl)amino)-2-oxo-1-phenylethyl 3-amino-6-(1-(1-((1-((1-(1-(1-(2,6-dioxopiperidin-3-yl)-2,5-dioxo-2,5-dihydro-1H-pyrrol-3-yl)azetidine-3-carbonyl)piperidin-4-yl)methyl)piperidin-4-yl)methyl)piperidin-4-yl)-1H-pyrazol-4-yl)pyrazine-2-carboxylate] registered an equilibrium dissociation constant (Kd) of 0.47 nM. Further, on MLKL [2], the “Degradation assay (Degradation %) 1 μM” value was 33.35% and the “Degradation assay (Degradation %) 10 μM” value worked out at 29.05%. For the same compound, in the assay with FADD−/− Jurkat cells (FADD−/− Jurkat cells), the “Necroptosis inhibition assay (Rescue %) 1 μM” value amounted to 11.86% and the “Necroptosis inhibition assay (Rescue %) 10 μM” value is listed as 22.99%.

In turn, `Nc1ncc(-c2cnn(C3CCN(C(=O)C4CCN(c5ccc6c(c5)C(=O)N(C5CCC(=O)NC5=O)C6=O)CC4)CC3)c2)nc1C(=O)OC(C(=O)Nc1ccc(F)cc1)c1ccccc1` (centres unmarked) [TDH-280, 2-((4-fluorophenyl)amino)-2-oxo-1-phenylethyl 3-amino-6-(1-(1-(1-(2-(2,6-dioxopiperidin-3-yl)-1,3-dioxoisoindolin-5-yl)piperidine-4-carbonyl)piperidin-4-yl)-1H-pyrazol-4-yl)pyrazine-2-carboxylate] displayed an equilibrium dissociation constant (Kd) on MLKL [1] of 9.3 nM. Moreover, on MLKL [2], the “Degradation assay (Degradation %) 1 μM” value is 53.99% and the “Degradation assay (Degradation %) 10 μM” value was 39.22%. Further, in the assay on FADD−/− Jurkat cells, the “Necroptosis inhibition assay (Rescue %) 1 μM” value was found to be 33.16% and the “Necroptosis inhibition assay (Rescue %) 10 μM” value was determined as 19.54%.

For `Nc1ncc(-c2cnn(C3CCN(C(=O)CCC4CCN(C(=O)CCc5ccc6c(c5)C(=O)N(C5CCC(=O)NC5=O)C6=O)CC4)CC3)c2)nc1C(=O)O[C@@H](C(=O)Nc1ccc(F)cc1)c1ccccc1` (stereo partly drawn) [TDH-432, (R)-2-((4-fluorophenyl)amino)-2-oxo-1-phenylethyl 3-amino-6-(1-(1-(3-(1-(3-(2-(2,6-dioxopiperidin-3-yl)-1,3-dioxoisoindolin-5-yl)propanoyl)piperidin-4-yl)propanoyl)piperidin-4-yl)-1H-pyrazol-4-yl)pyrazine-2-carboxylate], the Kd on MLKL [1] was found to be 0.9 nM. Besides, at MLKL [2], the “Degradation assay (Degradation %) 1 μM” value is 89.17% and the “Degradation assay (Degradation %) 10 μM” value came out at 73.05%. In addition, in the assay with FADD−/− Jurkat cells (FADD−/− Jurkat cells), the “Necroptosis inhibition assay (Rescue %) 1 μM” value is on record as 12.47% and the “Necroptosis inhibition assay (Rescue %) 10 μM” value amounted to 0.07%.

Consider `Nc1ncc(-c2ccc(N3CCN(CCOCCOCCNC(=O)C4CCN(c5ccc6c(c5)C(=O)N(C5CCC(=O)NC5=O)C6=O)CC4)CC3)nc2)nc1C(=O)OC(C(=O)Nc1ccc(F)cc1)c1ccccc1` (centres unmarked) [TDH-258, 2-((4-fluorophenyl)amino)-2-oxo-1-phenylethyl 3-amino-6-(6-(4-(2-(2-(2-(1-(2-(2,6-dioxopiperidin-3-yl)-1,3-dioxoisoindolin-5-yl)piperidine-4-carboxamido)ethoxy)ethoxy)ethyl)piperazin-1-yl)pyridin-3-yl)pyrazine-2-carboxylate], for which the Kd at MLKL [1] is 78 nM. Further, on MLKL [2], the “Degradation assay (Degradation %) 1 μM” value is 13.9% and the “Degradation assay (Degradation %) 10 μM” value was determined as 10.67%. Besides, in the assay on FADD−/− Jurkat cells, the “Necroptosis inhibition assay (Rescue %) 1 μM” value is recorded as 33.73% and the “Necroptosis inhibition assay (Rescue %) 10 μM” value amounted to 24.69%.
